We go through four molecules from article PMC4126480, “Evaluation of drug interaction potential of Labisia pumila (Kacip Fatimah) and its constituents” (Frontiers in Pharmacology, 2014).

Molecules are shown by their SMILES. Values joined by “and” are separate entries in the source; they are usually repeats but may differ in a detail not shown here. Identical values can stand only once.

For one data set, the target named is T1, CYP3A4 (Homo sapiens, UniProt P08684).
T1 construct: purchased BD Gentest (Woburn, MA, USA); host or cells: baculovirus expression system
Description: Time dependent inhibition (pre-incubation assay) of recombinant CYP3A4. The format is in vitro ADME. On the procedure:
The reaction mixture (180–190 μL), consisting of test sample, recombinant enzyme, control protein (0.05 mg of protein/mL), cofactor mix, G-6-PDH, and 50 mM potassium phosphate buffer (pH 7.4) was pre-incubated for 30 min followed by addition of respective fluorescent substrates (10–20 μL) and further incubation for 15 (CYP1A2), 30 (CYP3A4), or 45 (CYP 2C9 and 2C19) min. The reaction was terminated by addition of 75 μL of ice cold acetonitrile/0.5 M Tris base (80:20) and fluorescence was measured as above. IC50 values (pre-incubation assay) were obtained as above. The shift in the concentration-response curve was calculated as the ratio of IC50 (co-incubation)/IC50 (pre-incubation).

Data set [1] addresses T2, CYP2C9 (Homo sapiens, UniProt P11712).
T2 construct: purchased BD Gentest (Woburn, MA, USA); host or cells: baculovirus expression system
In words: Prediction of in vivo HDI from in vitro results, CYP2C9. Details: key to Likelihood of causing HDI: If the IC50 values were lower than the GIT or plasma concentration, then the test compound or extract is likely to cause HDI in vivo. The settings on record: for Likelihood of causing HDI: CYP2C9, IC50 compared with estimated GIT and plasma concentrations; for Plasma concentration: Table 3, CYP2C9 section. On the procedure: (§1) All assumptions to predict the HDI potential of KF methanolic extract and its constituents were according to previously published report ([Awortwe et al., 2014]). The % yield was calculated from the amounts extracted from the KF roots ([Ali and Khan, 2011]). The human GIT volume is 250 mL and plasma volume is about 3 L. The commonly used maximum dose of KF extract capsules is 560 mg per day ([Abdul Kadir et al., 2012]) and accordingly we estimated the concentration per dose, GIT, and plasma concentrations of extract and its constituents. We then compared the in vitro IC50 values obtained from recombinant CYPs with estimated GIT and plasma concentrations. If the IC50 values were lower than the GIT or plasma concentration, then the test compound or extract is likely to cause HDI in vivo.

In data set [2] the target is T2, CYP2C9. In words: Reversible inhibition (co-incubation assay) of recombinant CYP2C9. In kind it is in vitro ADME. On the procedure: (§2) The assay for reversible inhibition was conducted in a total volume of 200 μL in 96-well microplates. The assay conditions, enzyme and substrate concentrations were similar as reported earlier ([Crespi et al., 1997]; [Manda et al., 2013]). Test samples or positive controls were serially diluted in a solution (100 μL) of cofactors mix, control protein (0.05 mg of protein/mL), and G-6-PDH to achieve six concentrations (100-0.4 μM or μg/mL). Initial readings were taken to record any inherent fluorescence and the plates were incubated at 37°C for 10 min. Reaction was initiated by the addition of enzyme substrate mixture (100 μL) followed by incubation for 15, 30, or 45 min. The reaction was terminated by the addition of 75 μL of ice cold acetonitrile/0.5 M Tris base (80:20). Fluorescence was measured on Spectramax M5 plate reader (Molecular Devices, Sunnyvale, CA, USA) at specified excitation and emission wavelengths for each substrate. IC50 values (co-incubation assay) were obtained from concentration-response curves generated by plotting concentration versus % inhibition.

Data set [3] has as its target T3, CYP2D6 (Homo sapiens, UniProt P10635).
T3 construct: purchased BD Gentest (Woburn, MA, USA); host or cells: baculovirus expression system
Description: Prediction of in vivo HDI from in vitro results, CYP2D6. The settings on record: for Likelihood of causing HDI: CYP2D6, IC50 compared with estimated GIT and plasma concentrations; for Plasma concentration: Table 3, CYP2D6 section. The procedure: as §1

The target of a further data set is T4, CYP1A2 (Homo sapiens, UniProt P05177).
T4 construct: purchased BD Gentest (Woburn, MA, USA); host or cells: baculovirus expression system
T4 sequence (P05177 1-516): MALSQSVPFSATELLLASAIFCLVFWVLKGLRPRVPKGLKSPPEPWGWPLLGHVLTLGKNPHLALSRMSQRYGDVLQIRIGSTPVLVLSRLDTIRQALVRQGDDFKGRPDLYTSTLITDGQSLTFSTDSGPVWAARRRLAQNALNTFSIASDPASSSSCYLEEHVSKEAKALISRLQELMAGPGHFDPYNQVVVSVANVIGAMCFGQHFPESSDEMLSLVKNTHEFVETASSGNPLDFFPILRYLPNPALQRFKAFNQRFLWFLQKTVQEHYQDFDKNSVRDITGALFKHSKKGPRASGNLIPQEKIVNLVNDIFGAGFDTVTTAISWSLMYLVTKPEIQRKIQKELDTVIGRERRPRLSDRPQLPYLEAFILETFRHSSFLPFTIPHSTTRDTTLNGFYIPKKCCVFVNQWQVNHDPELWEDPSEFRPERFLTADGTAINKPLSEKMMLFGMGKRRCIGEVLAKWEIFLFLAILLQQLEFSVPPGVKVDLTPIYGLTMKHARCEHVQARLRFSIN
In words: Prediction of in vivo HDI from in vitro results, CYP1A2. The settings on record: for Likelihood of causing HDI: CYP1A2, IC50 compared with estimated GIT and plasma concentrations; for Plasma concentration: Table 3, CYP1A2 section. On the procedure: as §1

For data set [4], the target named is T5, CYP2C19 (Homo sapiens, UniProt P33261).
T5 construct: purchased BD Gentest (Woburn, MA, USA); host or cells: baculovirus expression system
Description: Reversible inhibition (co-incubation assay) of recombinant CYP2C19. In kind it is in vitro ADME. On the procedure:
as §2

Data set [5] deals with T3, CYP2D6. Description: Reversible inhibition of recombinant CYP2D6. The format is in vitro ADME. The procedure:
as §2

The target of data set [6] is T5, CYP2C19. Description: Prediction of in vivo HDI from in vitro results, CYP2C19. The settings on record: for Likelihood of causing HDI: CYP2C19, IC50 compared with estimated GIT and plasma concentrations; for Plasma concentration: Table 3, CYP2C19 section. The arrangement: key to Likelihood of causing HDI: If the IC50 values were lower than the GIT or plasma concentration, then the test compound or extract is likely to cause HDI in vivo. The procedure: as §1

The target of data set [7] is T2, CYP2C9. Description: Time dependent inhibition (pre-incubation assay) of recombinant CYP2C9. The format is in vitro ADME. The settings on record: recombinant CYP2C9, 30 min pre-incubation. The procedure:
Time dependent inhibition (TDI) of CYPs was measured as described earlier by [Sekiguchi et al. (2009)]. The reaction mixture (180–190 μL), consisting of test sample, recombinant enzyme, control protein (0.05 mg of protein/mL), cofactor mix, G-6-PDH, and 50 mM potassium phosphate buffer (pH 7.4) was pre-incubated for 30 min followed by addition of respective fluorescent substrates (10–20 μL) and further incubation for 15 (CYP1A2), 30 (CYP3A4), or 45 (CYP 2C9 and 2C19) min. The reaction was terminated by addition of 75 μL of ice cold acetonitrile/0.5 M Tris base (80:20) and fluorescence was measured as above. IC50 values (pre-incubation assay) were obtained as above. The shift in the concentration-response curve was calculated as the ratio of IC50 (co-incubation)/IC50 (pre-incubation).

Setting [8] is: recombinant CYP2C19, co-incubation.

T1 sequence (P08684 whole entry): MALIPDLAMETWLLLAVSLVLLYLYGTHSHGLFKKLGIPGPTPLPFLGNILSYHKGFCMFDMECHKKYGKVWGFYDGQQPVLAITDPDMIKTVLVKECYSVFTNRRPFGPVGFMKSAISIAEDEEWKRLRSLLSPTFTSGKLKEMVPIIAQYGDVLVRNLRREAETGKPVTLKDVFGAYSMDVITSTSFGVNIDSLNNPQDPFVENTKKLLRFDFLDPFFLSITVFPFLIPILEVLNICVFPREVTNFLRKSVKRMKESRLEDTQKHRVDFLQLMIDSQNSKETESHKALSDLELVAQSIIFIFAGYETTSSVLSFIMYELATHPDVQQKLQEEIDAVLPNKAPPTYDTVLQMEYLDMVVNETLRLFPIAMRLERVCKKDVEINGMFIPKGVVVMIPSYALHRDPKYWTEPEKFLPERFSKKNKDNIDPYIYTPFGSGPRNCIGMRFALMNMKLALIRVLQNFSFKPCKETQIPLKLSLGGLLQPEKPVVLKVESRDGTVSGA
T2 sequence (P11712 whole entry): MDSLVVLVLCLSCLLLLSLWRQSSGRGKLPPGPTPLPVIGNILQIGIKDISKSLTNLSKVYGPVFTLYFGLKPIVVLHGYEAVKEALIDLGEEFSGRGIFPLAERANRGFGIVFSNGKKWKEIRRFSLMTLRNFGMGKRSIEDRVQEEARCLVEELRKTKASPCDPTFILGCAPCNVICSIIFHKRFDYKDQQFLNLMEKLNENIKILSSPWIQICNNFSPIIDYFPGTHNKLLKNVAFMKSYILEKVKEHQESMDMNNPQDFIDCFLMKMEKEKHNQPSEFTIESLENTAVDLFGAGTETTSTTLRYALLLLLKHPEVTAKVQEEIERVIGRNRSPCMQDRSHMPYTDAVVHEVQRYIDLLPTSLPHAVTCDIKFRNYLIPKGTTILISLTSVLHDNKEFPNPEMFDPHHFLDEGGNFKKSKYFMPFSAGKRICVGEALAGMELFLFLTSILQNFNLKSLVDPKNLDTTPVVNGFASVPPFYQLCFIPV
T3 sequence (P10635 whole entry): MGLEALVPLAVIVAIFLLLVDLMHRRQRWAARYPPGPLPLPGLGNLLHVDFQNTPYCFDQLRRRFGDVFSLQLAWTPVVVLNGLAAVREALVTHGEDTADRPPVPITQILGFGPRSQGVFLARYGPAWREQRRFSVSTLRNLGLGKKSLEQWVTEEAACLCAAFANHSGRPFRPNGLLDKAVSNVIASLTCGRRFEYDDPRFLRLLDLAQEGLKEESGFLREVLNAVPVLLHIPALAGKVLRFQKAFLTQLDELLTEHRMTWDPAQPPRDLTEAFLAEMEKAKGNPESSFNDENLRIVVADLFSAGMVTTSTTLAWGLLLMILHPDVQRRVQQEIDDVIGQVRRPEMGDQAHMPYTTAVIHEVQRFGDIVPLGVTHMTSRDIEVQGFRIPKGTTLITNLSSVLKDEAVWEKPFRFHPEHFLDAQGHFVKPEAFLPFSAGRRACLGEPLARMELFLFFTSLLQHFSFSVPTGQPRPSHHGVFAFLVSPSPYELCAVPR
T5 sequence (P33261 whole entry): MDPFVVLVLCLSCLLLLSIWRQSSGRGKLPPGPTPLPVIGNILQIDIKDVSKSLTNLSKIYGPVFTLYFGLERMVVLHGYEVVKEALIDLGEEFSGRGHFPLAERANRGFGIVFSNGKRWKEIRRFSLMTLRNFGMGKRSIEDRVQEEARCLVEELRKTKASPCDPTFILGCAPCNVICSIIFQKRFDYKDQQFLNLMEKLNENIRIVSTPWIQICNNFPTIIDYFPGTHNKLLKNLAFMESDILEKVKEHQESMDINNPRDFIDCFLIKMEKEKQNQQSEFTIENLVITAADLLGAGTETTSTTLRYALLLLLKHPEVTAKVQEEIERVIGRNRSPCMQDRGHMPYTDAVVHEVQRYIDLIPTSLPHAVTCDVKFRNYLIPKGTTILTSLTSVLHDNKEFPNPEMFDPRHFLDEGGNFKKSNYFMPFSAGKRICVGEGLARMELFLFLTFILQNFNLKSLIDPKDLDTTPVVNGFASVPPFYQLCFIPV

Usually IC50 stands for the concentration that gives 50% inhibition. On to `CCCC/C=C\CCCCCCCCCc1cc(O)cc(O)c1` [5-[10(Z)-pentadecenyl]resorcinol], for which the 50% inhibitory concentration (IC50) on CYP3A4 was 0.3 ± 0.06 µM; at CYP2C9 [2], 11.9 µM; on CYP2C19 [4] (setting [8]) it was 3.77 µM; on CYP2D6 [5] it was 87.9 µM; at CYP2C9 [7] it was 8 ± 1.4 µM. The “Likelihood of causing HDI” value is “likely” at CYP2C9 [1], “Remote” on CYP2D6 [3], “Remote” on CYP1A2 and “likely” on CYP2C19 [6]. Also, the Plasma concentration on CYP2C9 [1] was 13220 ng/mL; at CYP2D6 [3], 1460 ng/mL; on CYP1A2 it was 774 ng/mL; on CYP2C19 [6], 13220 ng/mL.

Turning to `CCCC/C=C\CCCCCCCCCc1cc(O)cc(OC)c1` [Belamcandol B], the IC50 was 10 ± 1.3 µM at CYP3A4; 69.2 µM at CYP2C9 [2]; 2.2 µg/mL on CYP2C19 [4] (human, recombinant CYP2C19, recombinant CYP2C19, co-incubation); 2.2 ± 0.6 µM on CYP2C19 [4] (setting [8]); 105 µM at CYP2D6 [5]; 23 ± 2.1 µM at CYP2C9 [7]. For the same molecule, the “Likelihood of causing HDI” value on CYP2C9 [1] is reported as “remote”; at CYP2D6 [3], “unlikely”; on CYP1A2, “unlikely”; on CYP2C19 [6], “likely”. In addition, the Plasma concentration at CYP2D6 [3] is 650 ng/mL; at CYP1A2, 310 ng/mL.

On to `CCCC/C=C\CCCCCCCCCC1=C(c2c(O)cc(O)cc2CCCCCCCCC/C=C\CCCC)C(=O)C=C(OC)C1=O` [Demethylbelamcandaquinone B], for which the IC50 on CYP3A4 is 26 ± 1.5 µM; at CYP2C9 [2], 16 µM and 15.1 µM; at CYP2C19 [4] (setting [8]), 8 µM and 7.99 µM; on CYP2D6 [5] it was 33.2 µM; on CYP2C9 [7] it was 22 ± 1.8 µM. Further, the “Likelihood of causing HDI” value is given as “likely” on CYP2C9 [1], “unlikely” at CYP2D6 [3], “unlikely” at CYP1A2 and “likely” at CYP2C19 [6]. Moreover, the Plasma concentration was 790 ng/mL on CYP2C9 [1], 1640 ng/mL at CYP2D6 [3], 722 ng/mL at CYP1A2 and 790 ng/mL at CYP2C19 [6].

Regarding `CCCC/C=C\CCCCCCCCCc1cc(O)cc2oc3cc(OC)c(O)c(CCCCCCCCC/C=C\CCCC)c3c12` [Fatimahol], the IC50 on CYP3A4 stood at 4.4 ± 1.3 µM; at CYP2C9 [2] it was 17 µM; on CYP2C19 [4] (setting [8]), 17 µM; at CYP2C9 [7] it was 23 ± 1.5 µM. The “Likelihood of causing HDI” value at CYP2C9 [1], on CYP2D6 [3], on CYP1A2 and on CYP2C19 [6] was “unlikely” in each case. Besides, the Plasma concentration on CYP2C9 [1], at CYP2D6 [3], at CYP1A2 and at CYP2C19 [6] was 16 ng/mL throughout.
